In PMC10544575, “Inhibitory mechanism of vortioxetine on CYP450 enzymes in human and rat liver microsomes” (Frontiers in Pharmacology, 2023):
Like-named read-outs stand apart in the source and are kept apart here.

Assays:
CYP2B = assay: IC50-shift experiment, CYP2B in RLMs; assay type: in vitro ADME; details: rat, rat liver microsomes, probe bupropion; for IC50 at 30 min: bupropion 20 μM
CYP3A = assay: IC50 of vortioxetine on CYP3A (midazolam) in RLMs; assay type: in vitro ADME; details: rat, rat liver microsomes, probe midazolam
Method: (§1) The components of the incubation system were as follows: 0.20 mg/mL HLMs or 0.20 mg/mL RLMs, 0.1 M Tris-HCl, vortioxetine, and the probe substrates of each enzyme. In the study of Km’s (Michaelis–Menten constant) experiment, midazolam (1, 2, 5, 10, 20, 50 and 100 μM in HLMs and RLMs) corresponded to CYP3A4/3A; bupropion (10, 20, 50, 100, 200, 500, 1,000 and 2000 μM in HLMs; 1, 2, 5, 10, 20, 50, 100 and 200 μM in RLMs) corresponded to CYP2B6/2B; amodiaquine (5, 10, 20, 50, 100 and 200 μM in HLMs; 10, 20, 50, 100, 200, 500 μM in RLMs) corresponded to CYP2C8/CYP2C-1; losartan (1, 2, 5, 10, 20, 50, 100, 200 μM in HLMs; 10, 20, 50, 100, 200, 500 and 1,000 μM in RLMs) corresponded to CYP2C9/CYP2C-2; mephenytoin (20, 50, 100, 200, 500 and 1,000 μM in HLMs; 5, 10, 20, 50, 100, 200, 500 and 1,000 μM in RLMs) corresponded to CYP2C19/CYP2C-3; and dextromethorphan (1, 2, 5, 10, 20, 50 and 100 μM in HLMs and RLMs) corresponded to CYP2D6/CYP2D. […]
(§2) All experiments results were detected by UPLC-MS/MS, which equipped with a Waters Acquity UPLC system (Milford, MA, United States) and a Waters Xevo TQ-S triple quadrupole tandem mass spectrometer with an electrospray ionization source (Milford, MA, United States). […]
(§3) IC50 values and enzyme kinetic parameters were calculated by Graphpad Prism 6.0 (GraphPad software Inc., CA, United States). […] Data for each experiment were expressed as mean ± SD (n = 3).

[1] = design: method as in Chen et al., 2018; details: single oral dose of 10 mg; 14 healthy subjects; ref Chen et al., 2018; cited from earlier work
CYP2D = assay: IC50 of vortioxetine on CYP2D (dextromethorphan) in RLMs; assay type: in vitro ADME; details: rat, rat liver microsomes, probe dextromethorphan
Method: as §1, §2, §3

CYP2C-2 = assay: IC50-shift experiment, CYP2C-2 in RLMs; assay type: in vitro ADME, rat; details: for IC50 at 30 min: losartan 15 μM
CYP2C-1 = assay: IC50 of vortioxetine on CYP2C-1 (amodiaquine) in RLMs; assay type: in vitro ADME; details: rat, rat liver microsomes, probe amodiaquine
Method: as §1, §2, §3

CYP2C19 = CYP2C19 (Homo sapiens, UniProt P33261); assay: IC50 of vortioxetine on CYP2C19 (mephenytoin) in HLMs; assay type: in vitro ADME; design: 0.20 mg/mL HLMs; from tissue; host or cells: human liver microsomes
Method: as §1, §2, §3

CYP3A4 = CYP3A4 (Homo sapiens, UniProt P08684); assay: IC50 of vortioxetine on CYP3A4 (midazolam) in HLMs; assay type: in vitro ADME; design: 0.20 mg/mL HLMs; from tissue; host or cells: human liver microsomes
Method: as §1, §2, §3

[2] = inhibitory effect (strength judged by IC50), RLMs
[3] = inhibitory effect (strength judged by IC50), HLMs

CYP3A4, sequence (P08684 whole entry): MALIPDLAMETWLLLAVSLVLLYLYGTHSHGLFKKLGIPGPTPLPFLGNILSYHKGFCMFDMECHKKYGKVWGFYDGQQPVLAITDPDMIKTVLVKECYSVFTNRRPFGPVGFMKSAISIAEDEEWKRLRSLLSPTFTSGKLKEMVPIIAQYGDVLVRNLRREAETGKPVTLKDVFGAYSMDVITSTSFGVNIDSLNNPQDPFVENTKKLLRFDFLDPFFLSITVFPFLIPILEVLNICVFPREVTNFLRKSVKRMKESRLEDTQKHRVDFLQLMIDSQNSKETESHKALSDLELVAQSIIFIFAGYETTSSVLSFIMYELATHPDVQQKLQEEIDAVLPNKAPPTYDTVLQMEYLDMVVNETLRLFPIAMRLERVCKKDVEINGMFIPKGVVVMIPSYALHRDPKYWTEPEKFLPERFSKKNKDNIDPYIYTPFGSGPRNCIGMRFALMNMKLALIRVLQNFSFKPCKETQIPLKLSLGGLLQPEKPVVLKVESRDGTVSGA
CYP2C19, sequence (P33261 whole entry): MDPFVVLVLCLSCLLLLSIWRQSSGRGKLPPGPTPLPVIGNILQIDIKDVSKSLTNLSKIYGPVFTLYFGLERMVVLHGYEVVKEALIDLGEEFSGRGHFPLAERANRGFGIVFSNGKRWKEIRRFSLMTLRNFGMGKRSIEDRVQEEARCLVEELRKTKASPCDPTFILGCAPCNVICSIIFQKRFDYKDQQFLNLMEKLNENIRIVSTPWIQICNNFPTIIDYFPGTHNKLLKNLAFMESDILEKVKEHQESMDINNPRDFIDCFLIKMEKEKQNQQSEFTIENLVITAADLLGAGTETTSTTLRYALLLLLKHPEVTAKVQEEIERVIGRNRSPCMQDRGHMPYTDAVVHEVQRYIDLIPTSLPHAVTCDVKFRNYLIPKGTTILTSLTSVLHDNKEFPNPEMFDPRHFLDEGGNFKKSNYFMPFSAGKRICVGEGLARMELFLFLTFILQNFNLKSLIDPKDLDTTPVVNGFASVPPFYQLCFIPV

IC50 at 30 min (CYP2B; 30 min preincubation with 1.0 mM NADPH): 5.3 µM
IC50 at 30 min (CYP2B; 30 min preincubation without NADPH): 10.1 µM
IC50 at 30 min (CYP3A; RLMs 0.20 mg/mL, midazolam at Km, 37°C, 30 min, read-out: IC50): 16.4 µM
IC50 at 30 min (CYP3A; [2]): > 10 µM
IC50 at 30 min (CYP2D; RLMs 0.20 mg/mL, dextromethorphan at Km, 37°C, 30 min, read-out: IC50): 15.7 µM
IC50 at 30 min (CYP2D; [2]): > 10 µM
activity of CYP2C-2 with the NADPH (CYP2C-2; preincubation with NADPH vs without): significantly increased
IC50 at 30 min (CYP2C-2; rat, rat liver microsomes, probe losartan, CYP2C-2, 30 min preincubation with 1.0 mM NADPH): 37.5 µM
IC50 at 30 min (CYP2C-2; rat, rat liver microsomes, probe losartan, CYP2C-2, 30 min preincubation without NADPH): 8.97 µM
IC50 at 30 min (CYP2C-1; RLMs 0.20 mg/mL, amodiaquine at Km, 37°C, 30 min, read-out: IC50): 22.2 µM
IC50 at 30 min (CYP2C-1; [2]): > 10 µM
IC50 (CYP2C19; HLMs 0.20 mg/mL, mephenytoin at Km, 37°C, 30 min, read-out: IC50): 2.4 µM
IC50 (CYP2C19; [3]): 1 to 10 µM
IC50 (CYP3A4; HLMs 0.20 mg/mL, midazolam at Km, 37°C, 30 min, read-out: IC50): 9.31 µM
IC50 (CYP3A4; [3]): 1 to 10 µM
Compound: Cc1ccc(Sc2ccccc2N2CCNCC2)c(C)c1 [vortioxetine]
IC50 shift at 30 min (CYP2B; ratio IC50 (−) NADPH to IC50 (+) NADPH, read-out: IC50 fold shift): 1.91
AUC(0-t) [1]: 254.72 ngh/mL
Cmax [1]: 4.60 ng/mL
IC50 shift at 30 min (CYP2C-2; rat, rat liver microsomes, probe losartan, CYP2C-2, ratio IC50 (−) NADPH to IC50 (+) NADPH, read-out: IC50 fold shift): 0.24
